Key:
Type in all cases: cell-based
[1] = system: Balamuthia mandrillaris trophozoites; assay: CellTiter-Glo 2.0 trophocidal assay, B. mandrillaris; details: for IC50: CTG method, 72 h, duplicate twofold serial dilutions from 10 µM, mean ± SD
Description: Pathogenic Balamuthia mandrillaris (CDC:[…]; American Type Culture Collection (ATCC) 50209), a GAE isolate, isolated from a pregnant baboon at the San Diego Zoo in 1986 was donated by Luis Fernando […] University, Mexico [43]. Trophozoites were routinely grown axenically in Balamuthia mandrillaris Itson (BMI) media at 37 °C, 5% CO2 in vented 75 cm^2 tissue culture flasks (Olympus, El Cajon, CA, USA), until the cells were 80-90% confluent. For sub-culturing, 0.25% Trypsin-EDTA (Gibco, Gaithersburg, MD, USA) cell detachment reagent was used to detach the cells from the culture flasks. The cells were collected by centrifugation at 4000 rpm at 4 °C. Complete BMI media is produced by the addition of 10% fetal bovine serum (FBS) and 125 μg of penicillin/streptomycin antibiotics. The trophocidal activity of compounds was assessed using the CellTiter-Glo 2.0 luminescent viability assay (Promega, Madison, WI, USA), as previously described. Trophozoites were routinely cultured as described above and only logarithmic trophozoites were used. […] Inhibitors were assessed for percent inhibition using the criteria of ≤33% growth inhibition (no inhibition), 33-67% growth inhibition (moderate inhibition), and ≥67% growth inhibition (strong inhibition). […] We used this process to reduce the number of potential false positives. […] All assays were incubated at each of the parasites' representative growth temperatures, described above, for 72 h. At the 72 h time point, 25 μL of CellTiter-Glo 2.0 reagent was added to all wells of the 96-well plates using the Biomek NX^P automated workstation. The plates were protected from light and contents were mixed using an orbital shaker at 300 rpm at room temperature for 2 min to induce cell lysis. After shaking, the plates were equilibrated at room temperature for 10 min to stabilize the luminescent signal. The adenosine triphosphate (ATP) luminescent signal (relative light units; RLUs) was measured at 490 nm with a SpectraMax I3X plate reader (Molecular Devices, Sunnyvale, CA, USA). Drug inhibitory concentration (IC50) curves were generated using total ATP RLUs, where controls were calculated as the average of replicates using the Levenberg-Marquardt algorithm, using DMSO as the normalization control, as defined in Collaborative Drug Discovery Inc. (CDD) Vault (Burlingame, CA, USA). Values reported are from a minimum of two biological replicates with standard deviations.

[2] = system: Naegleria fowleri trophozoites; assay: CellTiter-Glo 2.0 trophocidal assay, N. fowleri; details: CTG method, 72 h, duplicate twofold serial dilutions from 10 µM, mean ± SD; read-out: N. fowleri Mean IC50 (µM) ± SD
Description: Pathogenic Naegleria fowleri (ATCC 30215), a clinical isolate obtained from a child in Adelaide, Australia, that died of PAM in 1969 was previously purchased from the American Type Culture Collection (ATCC). Trophozoites were routinely grown axenically at 34 °C in Nelson’s complete medium (NCM) in non-vented 75 cm^2 tissue culture flasks (Olympus, El Cajon, CA, USA), until the cells were 80–90% confluent. For sub-culturing, cells were placed on ice to detach the cells from the culture flasks. The cells were collected by centrifugation at 4000 rpm at 4 °C. Complete NCM media is produced by the addition of 10% FBS and 125 μg of penicillin/streptomycin antibiotics.
The trophocidal activity of compounds was assessed using the CellTiter-Glo 2.0 luminescent viability assay (Promega, Madison, WI, USA), as previously described. Trophozoites were routinely cultured as described above and only logarithmic trophozoites were used. In brief, B. mandrillaris, N. fowleri, or A. castellanii trophozoites cultured in their corresponding media were seeded at 16,000, 3000, or 1440 cells/well into white 96-well plates (Costar 3370), respectively. Initially all compounds were assessed in a single-point drug screen at 10 and 1 μM, as previously described. […] Control wells were supplemented with 0.1% (10 μM screening plate) or 0.01% (1 μM screening plate) DMSO, as the negative controls, or 12.5 μM of chlorhexidine, as the positive control. Following the single-point assays at 10 and 1 µM, we prioritized compounds for progression to IC50 determinations. […] We used this process to reduce the number of potential false positives. Drugs were cherry-picked, dissolved in the media specific to each parasite, and assessed in twofold serial dilutions from the highest concentration of 10 μM. All assays were incubated at each of the parasites’ representative growth temperatures, described above, for 72 h. At the 72 h time point, 25 μL of CellTiter-Glo 2.0 reagent was added to all wells of the 96-well plates using the Biomek NX^P automated workstation. The plates were protected from light and contents were mixed using an orbital shaker at 300 rpm at room temperature for 2 min to induce cell lysis. After shaking, the plates were equilibrated at room temperature for 10 min to stabilize the luminescent signal. The adenosine triphosphate (ATP) luminescent signal (relative light units; RLUs) was measured at 490 nm with a SpectraMax I3X plate reader (Molecular Devices, Sunnyvale, CA, USA). Drug inhibitory concentration (IC50) curves were generated using total ATP RLUs, where controls were calculated as the average of replicates using the Levenberg–Marquardt algorithm, using DMSO as the normalization control, as defined in Collaborative Drug Discovery Inc. (CDD) Vault (Burlingame, CA, USA). Values reported are from a minimum of two biological replicates with standard deviations.

[3] = system: A549 human lung carcinoma cells; assay: MTS cytotoxicity counter-screen of reconfirmed hits; details: MTS assay, 72 h, doubling dilutions from 10 µM; read-out: A549 Mean IC50
Description: Cytotoxicity of the reconfirmed hits was determined by using the CellTiter 96® AQueous One Solution Cell Proliferation Assay (Promega, Madison, WI) on A549 human lung carcinoma cells. A549 cells were seeded at a concentration of 1.6 × 10^4 cells/mL in 96-well tissue culture plates (Corning, NY, USA), in the presence of serially diluted active hits against B. mandrillaris, N. fowleri, or A. castellanii. Positive control wells contained cells and media; negative control wells contained 0.1% DMSO. Cells were grown in F12K medium supplemented with 10% FBS and 1% gentamycin (all supplied from Fisher Scientific, Atlanta, GA, USA). The inhibitor concentration started at 10 µM and was diluted in doubling dilutions to assess cytotoxicity in comparison to the respective free-living amoeba. Total volume of each well was 100 µL and plates were incubated at 37 °C, 5% CO2 for 72 h. Next, 4 h before the time-point, 20 µL of MTS (Promega, Madison, WI, USA) was added to each well. Inhibition of A549 growth was assessed at the 72 h time-point measuring the optical density (OD) values at 490 nm using a SpectraMax I3X plate reader (Molecular Devices, Sunnyvale, CA, USA). Curve fitting using non-linear regression was carried out using the average of replicates and the Levenberg–Marquardt algorithm, using DMSO as the normalization control, as defined in CDD Vault (Burlingame, CA, USA).

[4] = system: Acanthamoeba castellanii trophozoites; assay: CellTiter-Glo 2.0 trophocidal assay, A. castellanii; details: for IC50: CTG method, 72 h, duplicate twofold serial dilutions from 10 µM, mean ± SD
Description: This isolate was also purchased from ATCC. Trophozoites were routinely grown axenically at 27 °C in Protease Peptone-Glucose Media (PG) in non-vented 75 cm^2 tissue culture flasks (Olympus, El Cajon, CA, USA), until the cells were 80–90% confluent. For sub-culturing, cells were mechanically harvested to detach the cells from the culture flasks. The cells were collected by centrifugation at 4000 rpm at 4 °C.
The trophocidal activity of compounds was assessed using the CellTiter-Glo 2.0 luminescent viability assay (Promega, Madison, WI, USA), as previously described. Trophozoites were routinely cultured as described above and only logarithmic trophozoites were used. […] Initially all compounds were assessed in a single-point drug screen at 10 and 1 μM, as previously described. […] We used this process to reduce the number of potential false positives. Drugs were cherry-picked, dissolved in the media specific to each parasite, and assessed in twofold serial dilutions from the highest concentration of 10 μM. All assays were incubated at each of the parasites’ representative growth temperatures, described above, for 72 h. At the 72 h time point, 25 μL of CellTiter-Glo 2.0 reagent was added to all wells of the 96-well plates using the Biomek NX^P automated workstation. The plates were protected from light and contents were mixed using an orbital shaker at 300 rpm at room temperature for 2 min to induce cell lysis. After shaking, the plates were equilibrated at room temperature for 10 min to stabilize the luminescent signal. The adenosine triphosphate (ATP) luminescent signal (relative light units; RLUs) was measured at 490 nm with a SpectraMax I3X plate reader (Molecular Devices, Sunnyvale, CA, USA). Drug inhibitory concentration (IC50) curves were generated using total ATP RLUs, where controls were calculated as the average of replicates using the Levenberg–Marquardt algorithm, using DMSO as the normalization control, as defined in Collaborative Drug Discovery Inc. (CDD) Vault (Burlingame, CA, USA). Values reported are from a minimum of two biological replicates with standard deviations.

Row | Structure (SMILES) | IC50 [1] | IC50 [2] | IC50 [3] | IC50 [4] | potency against A. castellanii, in words ([4]; dose-response, CTG) | potency against B. mandrillaris, in words ([1]; dose-response, CTG) | IC50 ([4]; listed as eberconazole)
1 | O=C(/C(=C/c1ccc(Cl)cc1Cl)n1ccnc1)c1ccc(Cl)cc1 [MMV1634491] | > 10 µM | 5.15 ± 1.35 µM | > 10 µM | – | – | – | –
2 | O[C@@](Cn1cnnn1)(c1ccc(F)cc1F)C(F)(F)c1ccc(-c2ccc(OCC(F)(F)F)cc2)cn1 [MMV1634386] | > 10 µM | 2.4 ± 1.7 µM | > 10 µM | 0.16 ± 0.09 µM | nanomolar potency | – | –
3 | O=C1C=C(c2ccccc2)S(=O)(=O)c2ccccc21 [1,1-dioxide 1-thioflavone] | 0.37 ± 0.01 µM | 5 µM | > 10 µM | > 10 µM | – | nanomolar potency | –
4 | Clc1cc(Cl)c2c(c1)CCc1ccccc1C2n1ccnc1 (stereo not drawn) [Eberconazole] | > 10 µM | 1.22 ± 0.66 µM | > 10 µM | 3.7 ± 1.13 µM | – | – | ≤ 10 µM

Reference: PMC7344389, “Discovery of Anti-Amoebic Inhibitors from Screening the MMV Pandemic Response Box on Balamuthia mandrillaris, Naegleria fowleri, and Acanthamoeba castellanii” (Pathogens, 2020)
